According to ChEMBL document CHEMBL5584281, “Toward Precision Oncology: The Role of TPD in Targeting CDK2 and Beyond” (ACS Med Chem Lett, 2024):

Target: Cyclin-dependent kinase 2 (Homo sapiens, UniProt P24941)
Assay: Inhibition of CDK2 in human OVCAR-3 cells assessed as inhibition of retinoblastoma protein phosphorylation at S807/811 residues measured after 24 hrs by TR-FRET assay
Format: cell-based

| Compound | IC50 [nM] |
| --- | --- |
| O=C1CCC(N2Cc3cc(C4CN(Cc5cccc(S(=O)(=O)N6CCC(Nc7ncc(C(F)(F)F)c(-c8cnn(CC(F)(F)F)c8)n7)CC6)c5)C4)ccc3C2=O)C(=O)N1 (stereo not drawn) | < 100 |
| O=C1CCC(N2C(=O)c3cc(F)c(N4CC5(CN(Cc6cccc(S(=O)(=O)N7CCC(Nc8ncc(C(F)(F)F)c(-c9cnn(CC(F)(F)F)c9)n8)CC7)c6)C5)C4)cc3C2=O)C(=O)N1 (stereo not drawn) | < 100 |
| Cn1nc(N2CCC(=O)NC2=O)c2cc(C3CCN(Cc4cccc(S(=O)(=O)N5CCC(Nc6ncc(C(F)(F)F)c(-c7cnn(CC(F)(F)F)c7)n6)CC5)c4)CC3)ccc21 | < 100 |
| Cn1nc(N2CCC(=O)NC2=O)c2ccc(C3CCN(CC4CCN(S(=O)(=O)N5CCC(Nc6ncc(C(F)(F)F)c(-c7cnn(CC(F)(F)F)c7)n6)CC5)CC4)CC3)cc21 | < 100 |
| O=C1CCC(N2C(=O)c3cc(F)c(N4CCN(Cc5cccc(S(=O)(=O)N6CCC(Nc7ncc(Cl)c(-c8cnn(CC(F)(F)F)c8)n7)CC6)c5)CC4)cc3C2=O)C(=O)N1 (stereo not drawn) | < 100 |

The next lines start with the values.

| IC50 [nM] | Compound |
| --- | --- |
| < 100 | O=C1CCC(N2Cc3ccc(N4CCC5(CCN(Cc6cccc(S(=O)(=O)N7CCC(Nc8ncc(C(F)(F)F)c(-c9cnn(CC(F)(F)F)c9)n8)CC7)c6)CC5)CC4)cc3C2=O)C(=O)N1 (stereo not drawn) |
| ≤ 100 | Cn1nc(N2CCC(=O)NC2=O)c2ccc(C3CCN(Cc4cccc(S(=O)(=O)N5CCC(Nc6ncc(C(F)(F)F)c(-c7cnn(-c8ccccc8F)c7)n6)CC5)c4)CC3)cc21 |
| < 100 | O=C1CCC(c2ccc(N3CCN(Cc4cccc(S(=O)(=O)N5CCC(Nc6ncc(C(F)(F)F)c(-c7cnn(CC(F)(F)F)c7)n6)CC5)c4)CC3)cc2)C(=O)N1 (stereo not drawn) |
